Like-named read-outs stand apart in the source and are kept apart here.
Key:
LCK tyrosine kinase = LCK tyrosine kinase (Homo sapiens, UniProt P06239, C224D/P223M); experiment: LCK spectrophotometric assay; type: biochemical
Protocol: The spectrophotometric assay was carried out as described above for VEGF-R2, except for the following changes in concentration: LCK = 60 nM, MgCl2 = 0 mM, poly(E4Y1) = 20 mM.

human FAK (FAKcd409) = biological target: T1, human FAK (FAKcd409) (Homo sapiens, UniProt Q05397, P410T); experiment: FAK fluorescence polarization assay; type: biochemical; conditions: read-out: % Inhibition FAK, compound tested at 10 µM
T1 construct: comprises residues methionine 409 to glutamate 689; made in house; host or cells: baculovirus vector expression system (insect cells)
T1 sequence (Q05397 409-689 P410T): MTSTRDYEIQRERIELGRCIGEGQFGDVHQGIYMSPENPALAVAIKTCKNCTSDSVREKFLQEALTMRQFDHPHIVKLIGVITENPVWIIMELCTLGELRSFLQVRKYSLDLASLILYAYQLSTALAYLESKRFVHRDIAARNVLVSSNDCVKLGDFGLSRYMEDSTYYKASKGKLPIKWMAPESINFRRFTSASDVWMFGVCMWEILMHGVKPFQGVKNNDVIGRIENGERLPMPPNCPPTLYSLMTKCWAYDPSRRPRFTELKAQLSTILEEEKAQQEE
Protocol: FAK Construct for Assay. The catalytic domain of human FAK (FAKcd409) was expressed using the baculovirus vector expression system. […] The protein was purified using classical chromatography techniques.
FAK HTS utilized the fluorescence polarization assay provided by LJL Biosystems. The kinase reaction contained: 100mM Hepes pH 7.5, 10mM MgCl2, 1mM DTT, 1mM ATP, and 1mg/ml poly Glu-Tyr (4: 1). The reaction is initiated by the addition of 5nM FAKcd409. The reaction is terminated by the addition of EDTA followed by addition of fluor-labelled peptide and anti-phosphotyrosine antibody, both provided by LJL Biosystems. Inhibition results are read on a Analyst (LJL) detector.

[1] = tested on: human umbilical vein endothelial cells (HUVEC); experiment: HUVEC proliferation assay (VEGF-stimulated, MTT); type: cell-based; conditions: read-out: HUVEC IC50
CDK2/Cyclin A complex = CDK2/Cyclin A complex (Homo sapiens, UniProt P24941); experiment: CDK2/Cyclin A assay ([32P]ATP incorporation into Rb fragment); type: biochemical; conditions: Table 1; read-out: CDK2 * (Ki, cell in µM)
[2] = biological target: T2, phosphorylated Tie-2 (aa 775-1122) (Homo sapiens, UniProt Q02763); experiment: TIE-2 spectrophotometric assay; type: biochemical; conditions: read-out: % Inhibition Tie2-P, compound tested at 10 µM
T2 construct: 4 to 12 nM phosphorylated Tie-2 (aa 775-1122); made in house; host or cells: insect cells
T2 sequence (Q02763 775-1122): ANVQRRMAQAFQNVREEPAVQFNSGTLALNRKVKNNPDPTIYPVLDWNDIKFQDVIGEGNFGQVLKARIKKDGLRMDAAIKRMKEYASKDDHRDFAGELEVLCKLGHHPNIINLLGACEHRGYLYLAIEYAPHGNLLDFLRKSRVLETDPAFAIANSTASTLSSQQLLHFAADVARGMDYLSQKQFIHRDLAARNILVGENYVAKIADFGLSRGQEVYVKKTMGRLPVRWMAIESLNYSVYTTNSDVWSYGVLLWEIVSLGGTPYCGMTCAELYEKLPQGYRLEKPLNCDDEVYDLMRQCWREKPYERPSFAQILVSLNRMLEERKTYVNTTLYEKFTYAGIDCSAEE
Procedure, shortened: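 Human phosphorylated Tie-2 kinase activity was measured spectrophotometrically by coupling ADP formation, from phosphoryl transfer to poly(Glu4 Tyr), to NADH oxidation via pyruvate kinase and lactate dehydrogenase. Absorbance loss at 340 nm was read on a Beckman DU650. Reactions held 1 mM phosphoenolpyruvate, 0.24 mM NADH, 40 mM MgCl2, 5 mM DTT, 0.5 mM ATP, and 15 units/mL each of PK and LDH in 100 mM HEPES, pH 7.5.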

CDK4/Cyclin D3 complex [3] = biological target: T3, CDK4/Cyclin D3 complex (Homo sapiens, UniProt P11802)
T3 sequence (P11802 whole entry): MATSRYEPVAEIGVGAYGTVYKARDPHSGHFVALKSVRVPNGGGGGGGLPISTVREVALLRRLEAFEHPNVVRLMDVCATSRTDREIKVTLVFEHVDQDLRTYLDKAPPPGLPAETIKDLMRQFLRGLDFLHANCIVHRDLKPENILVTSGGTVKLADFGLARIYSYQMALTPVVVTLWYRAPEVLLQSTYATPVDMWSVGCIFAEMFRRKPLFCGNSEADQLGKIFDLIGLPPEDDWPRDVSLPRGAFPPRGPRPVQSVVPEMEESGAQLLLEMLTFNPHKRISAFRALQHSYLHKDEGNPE
T3 sequence (P30281 whole entry partner): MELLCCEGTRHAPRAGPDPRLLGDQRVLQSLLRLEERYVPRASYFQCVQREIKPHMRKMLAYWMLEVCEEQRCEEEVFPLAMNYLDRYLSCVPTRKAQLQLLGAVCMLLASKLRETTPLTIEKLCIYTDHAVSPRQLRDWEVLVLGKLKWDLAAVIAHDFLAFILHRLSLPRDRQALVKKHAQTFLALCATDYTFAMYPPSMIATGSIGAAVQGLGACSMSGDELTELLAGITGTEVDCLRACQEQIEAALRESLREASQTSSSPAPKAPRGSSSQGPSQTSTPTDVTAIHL

HCT-116 = HCT-116 cell assay (Table 2); type: cell-based; conditions: Homo sapiens
[4] = biological target: T4, unphosphorylated VEGF-R2Δ50 (Homo sapiens, UniProt P35968, DEL940-989/E990V); conditions: read-out: FLVK ** (Ki); Table 1
T4 sequence (P35968 with tags, fused parts or gaps DEL940-989/E990V limits assumed): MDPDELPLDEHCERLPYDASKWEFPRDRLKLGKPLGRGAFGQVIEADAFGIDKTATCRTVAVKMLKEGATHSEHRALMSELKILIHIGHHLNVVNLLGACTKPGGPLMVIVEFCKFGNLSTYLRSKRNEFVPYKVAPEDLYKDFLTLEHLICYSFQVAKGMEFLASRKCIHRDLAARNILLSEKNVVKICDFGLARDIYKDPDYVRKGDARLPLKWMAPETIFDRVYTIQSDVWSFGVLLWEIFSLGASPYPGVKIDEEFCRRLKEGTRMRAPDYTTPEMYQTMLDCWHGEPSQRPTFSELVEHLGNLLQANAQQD

in vitro = in vitro ADME, human; conditions: human, microsomes, 2 h, 5 µM
Procedure, shortened: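 HLM diluted to 5 mg/mL in 100 mM KPO4, preincubated 10 min at 37 °C with NADPH-regenerating system. Compound (5 µM final) incubated at 37 °C in triplicate, sampled at 0 and 2 h into ice-cold acetonitrile, then LC-MS analysis.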

human FGF-R1 = human FGF-R1 (Homo sapiens, UniProt P11362, C488A/C584S/L457V); experiment: FGF-R spectrophotometric assay; type: biochemical
Sequence of human FGF-R1 (P11362 456-766 L457V/C488A/C584S): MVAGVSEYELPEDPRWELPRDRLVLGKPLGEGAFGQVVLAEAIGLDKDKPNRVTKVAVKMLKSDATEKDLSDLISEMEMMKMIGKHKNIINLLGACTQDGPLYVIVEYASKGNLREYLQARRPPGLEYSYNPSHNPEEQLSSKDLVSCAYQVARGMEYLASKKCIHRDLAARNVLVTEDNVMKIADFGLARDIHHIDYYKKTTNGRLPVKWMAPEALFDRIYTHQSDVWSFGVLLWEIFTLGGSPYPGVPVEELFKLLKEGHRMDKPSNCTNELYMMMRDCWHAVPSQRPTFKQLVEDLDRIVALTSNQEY
Protocol: The spectrophotometric assay was carried out as described above for VEGF-R2, except for the following changes in concentration: FGF-R = 50 nM, ATP = 2 mM, and poly(E4Y1) =15 mM.

[5] = mouse, in vivo, pH 2.3
human CHK1 (FL-CHK1) = biological target: T5, human CHK1 (FL-CHK1) (Homo sapiens, UniProt O14757); experiment: CHK1 coupled spectrophotometric assay; type: biochemical
T5 construct: C-terminally His-tagged full-length human CHK1 (FL-CHK1) was expressed using the baculovirus/insect cell system; made in house; host or cells: baculovirus/insect cell system
T5 sequence (O14757 1-476): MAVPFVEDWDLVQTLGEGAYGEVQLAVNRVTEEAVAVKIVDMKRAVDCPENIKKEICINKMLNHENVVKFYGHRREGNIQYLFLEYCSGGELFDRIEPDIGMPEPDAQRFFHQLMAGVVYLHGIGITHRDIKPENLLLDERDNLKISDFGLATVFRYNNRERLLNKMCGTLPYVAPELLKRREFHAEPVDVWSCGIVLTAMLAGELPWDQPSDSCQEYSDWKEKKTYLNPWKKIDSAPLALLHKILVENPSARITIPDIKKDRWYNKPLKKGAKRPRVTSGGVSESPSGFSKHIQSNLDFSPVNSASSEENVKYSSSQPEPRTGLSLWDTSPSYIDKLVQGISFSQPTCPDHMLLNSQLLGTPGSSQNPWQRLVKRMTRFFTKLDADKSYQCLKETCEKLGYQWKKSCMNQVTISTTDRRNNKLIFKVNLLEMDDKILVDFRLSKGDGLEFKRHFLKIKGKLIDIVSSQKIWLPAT
Procedure, shortened: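 His-tagged full-length human CHK1 from baculovirus/insect cells, 10 nM, phosphorylating Syntide-2. ADP formation coupled via PK/LDH with PEP to NADH oxidation, followed as absorbance decrease at 340 nm. Ki from initial rates at varying compound concentrations.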

[6] = biological target: T4, unphosphorylated VEGF-R2Δ50; experiment: biochemical; conditions: read-out: FLVK* (% inhibition)
CDK4/Cyclin D3 complex [7] = biological target: T3, CDK4/Cyclin D3 complex; experiment: biochemical; conditions: read-out: CDK4* (% inhibition @ 5 µM)
[8] = biological target: T6, truncated catalytic subunit (gamma subunit) of phosphorylase kinase (amino acids 1-298) (Oryctolagus cuniculus, UniProt P00518); experiment: Phosphorylase kinase assay; type: biochemical; conditions: 10 µM of compound; phosphoryl transfer from ATP to phosphorylase b
T6 construct: (gamma subunit) of phosphorylase kinase (amino acids 1-298); made in house
T6 sequence (P00518 2-299 limits assumed): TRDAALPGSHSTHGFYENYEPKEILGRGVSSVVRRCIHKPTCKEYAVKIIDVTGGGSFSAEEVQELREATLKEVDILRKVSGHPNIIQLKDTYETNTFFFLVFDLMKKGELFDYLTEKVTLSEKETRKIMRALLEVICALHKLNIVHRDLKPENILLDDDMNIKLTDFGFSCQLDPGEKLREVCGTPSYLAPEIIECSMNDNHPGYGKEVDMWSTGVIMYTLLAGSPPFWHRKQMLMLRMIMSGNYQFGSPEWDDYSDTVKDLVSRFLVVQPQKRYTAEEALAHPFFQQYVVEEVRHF
Protocol: In the assay, the purified catalytic subunit is used to phosphorylate phosphorylase b using radiolabled ATP. Briefly, 1.5 mg/ml of phosphorylase b is incubated with 10 nM phosphorylase kinase in 10 mM MgCl2, 50 mM Hepes pH 7.4, at 37 °C. […] The reaction was terminated and proteins were precipitated by the addition of TCA to 10% final concentration. […] The filter plate was then extensively washed with 20% TCA, and dried. Scintilation fluid was then added to the plate and incorporated radiolabel was counted on a Wallac microbeta counter.

[9] = Isomer stability under assay conditions; type: physicochemical; conditions: Z-isomer, isolated pure
Protocol: Reference Example 33(h) was prepared in the same reaction as Reference Example 33(d). […] Found: C (66.36), H (4.08), N (11.49), S (6.55).

[10] = Table 1, compound concentration 1 µM, read-out: Lck-P* (% inhibition)
[11] = read-out: CDK4 * (Ki, cell in µM), Table 1
[12] = Table 1, compound concentration 1 µM

Sequence of LCK tyrosine kinase (P06239 223-509 P223M/C224D): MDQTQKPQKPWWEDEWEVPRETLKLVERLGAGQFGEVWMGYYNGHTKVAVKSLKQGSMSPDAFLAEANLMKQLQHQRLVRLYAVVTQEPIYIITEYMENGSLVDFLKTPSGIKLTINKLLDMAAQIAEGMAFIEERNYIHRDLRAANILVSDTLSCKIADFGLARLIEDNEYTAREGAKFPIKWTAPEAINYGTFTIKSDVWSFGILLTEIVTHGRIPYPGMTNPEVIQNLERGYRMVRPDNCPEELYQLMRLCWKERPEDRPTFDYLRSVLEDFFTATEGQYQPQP

C(=C\c1n[nH]c2cc(Oc3ccccc3)ccc12)/c1ccccc1 [8(a), 3-(E-styryl)-6-phenoxy-1H-indazole]
inhibition at 1 µM (LCK tyrosine kinase; [10]): 43%
inhibition at 10 µM (human FAK (FAKcd409)): 3%
IC50 ([1]; Homo sapiens, HUVEC): > 1000 nM
Ki (CDK2/Cyclin A complex): > 100 µM
inhibition at 10 µM [2]: 55%
Ki (CDK4/Cyclin D3 complex [3]; [11]): > 100 µM

C(=C\c1n[nH]c2cc(Sc3ccccc3)ccc12)/c1ccccc1 [8(c), 3-(E-styryl)-6-phenylsulfanyl-1H-indazole]
inhibition at 1 µM (LCK tyrosine kinase; [10]): 34%
inhibition at 10 µM (human FAK (FAKcd409)): 15%
IC50 ([1]; Homo sapiens, HUVEC, Table 1): 280 nM
Ki (CDK2/Cyclin A complex): > 100 µM
inhibition at 10 µM [2]: 31%
Ki (CDK4/Cyclin D3 complex [3]; [11]): > 100 µM

Oc1ccc(-c2ccc3c(-c4nc5ccccc5[nH]4)n[nH]c3c2)c(Oc2ccccc2)c1 [24(g), 3-1H-Benzoimidazol-2-yl-6-(2-phenoxy-4-hydroxyphenyl)-1H-indazole]
IC50 (HCT-116): > 5 µM

O=C(c1cccc(NC(=O)c2ccccn2)c1)c1ccc2c(/C=C/c3ccccn3)n[nH]c2c1 [41 (aa)]
Lck-P* (% inhibition) (LCK tyrosine kinase; [12]): 49%
Ki [4]: 0.11 nM
% remain (HLM, 2 h) (in vitro): 100%
IC50 ([1]; Table 1): 1 nM
FGF-P* (% inhibition) (human FGF-R1; [12]): 37%
AUCleast ([5]; ip, 25 mg/kg): 6659 ng·h/mL
T1/2 ([5]; ip, 25 mg/kg): 2.1 h
Cmin (7 hr conc.) ([5]; po, 50 mg/kg, 7 h): 5 ng/mL
AUCleast ([5]; po, 50 mg/kg): 289 ng·h/mL
T1/2 ([5]; po, 50 mg/kg): 0.9 h

CCOCc1cc(O)c(OC)cc1-c1ccc2c(-c3nc4ccccc4[nH]3)n[nH]c2c1 [Reference Example 24(l), 3-1H-Benzoimidazol-2-yl-6-(2-(ethoxymethyl)-5-methoxy-4-hydroxy-phenyl)-1H-indazole]
inhibition at 20 µM (human CHK1 (FL-CHK1); read-out: CHK1* (% inhibition @ 20 µM)): 62%
Ki (CDK4/Cyclin D3 complex [3]; read-out: CDK4* (Ki), Table 2): 0.013 µM
Ki (CDK4/Cyclin D3 complex [3]; read-out: CDK4* (Ki), Table 2, listed as 24(1)): 0.071 µM

CNC(=O)c1ccc2[nH]c(-c3n[nH]c4cc(-c5ccc(O)cc5OC)ccc34)nc2c1 [Reference Example 25(g), 3-(5-methylcarbamoyl-1H-benzoimidazol-2-yl)-6-(2-methoxy-4-hydroxyphenyl)-1H-indazole]
inhibition at 1 µM (LCK tyrosine kinase; read-out: Lck* (% inhibition)): 76%
IC50 (HCT-116): 2 µM
inhibition at 1 µM (human CHK1 (FL-CHK1); read-out: CHK1* (% inhibition)): 21%
inhibition at 1 µM (human FGF-R1; read-out: FGF* (% inhibition)): 82%

COc1cc(O)ccc1-c1ccc2c(-c3nc4ccc(S(N)(=O)=O)cc4[nH]3)n[nH]c2c1 [Reference Example 25(i), 3-(5-Aminosulfonyl-1H-benzoimidaxol-2-yl)-6-(2-methoxy-4-hydroxy-phenyl)-1H-indazole]
IC50 (HCT-116): > 5 µM

C(=C\c1n[nH]c2cc(-c3ccccc3)ccc12)/c1ccccc1 [Reference Example 27(a), 6-phenyl-3-E-styryl-1H-indazole]
inhibition at 1 µM [6]: 71%
inhibition at 5 µM (CDK4/Cyclin D3 complex [7]): 28%
inhibition at 10 µM [8]: 37%

O=C(Nc1cccc(Cl)c1)c1ccccc1Sc1ccc2c(/C=C\c3ccccn3)n[nH]c2c1 [Reference Example 33(h), 6-[2-(3-chlorophenylcarbamoyl)phenysulfanyl]-3-Z-[2-(pyridin-2-yl)ethenyl]-1H-indazole]
isomerization under assay conditions [9]: found to isomerize to Reference Example 33(d) under assay conditions
